Measured values published in patent US8217013B2, “Polyene diester antibiotics” (priority 2007, dated 2012).
Like-named read-outs stand apart in the source and are kept apart here.

Columns and labels:
Test in all cases: Test of antibacterial activity in vitro (bacteria-inhibition zone)
Assay type in all cases: cell-based
Candida albicans = details: for zone of inhibition at 5.6 µg/mL: Candida albicans
Source text: (§1) Test of Antibacterial Activity In Vitro
(§2) Experiment drugs: the polyene diester compounds prepared by examples 1-12
(§3) Control drugs: amphotericin B (standard product) • mycostatin (standard product) • natamycin (standard product)
2.1 Preparation of Candida albicans suspension: PHARMACOPOEIA OF THE PEOPLES REPUBLIC OF CHINA, second part, 2005 edition, appendix p 81-84.
(§4) Taking appropriate amount of the above mentioned amphotericin B, mycostatin, natamycin and the polyene diester compounds prepared by examples 1-8 and 10-12, dissolving in a little dimethyl sulfoxide respectively, using pH7 phosphate buffer to dilute into solution which is equivalent to contain amphotericin B, mycostatin, natamycin 280 Units per milliliter, taking 1 ml and using pH7 phosphate buffer to quantitatively dilute into solution which is equivalent to contain amphotericin B 1.4 μg/ml and 2.8 μg/ml, and is equivalent to contain 5.6 μg/ml of mycostatin and natamycin.
(§5) In addition, preparing the solution according to the same method, adding 40% defibered sheep serum, using pH7 phosphate buffer to quantitatively dilute into unit solution which is equivalent to contain amphotericin B 1.4 μg/ml and 2.8 μg/ml, and is equivalent to contain 5.6 μg/ml of mycostatin and natamycin. Testing according to PHARMACOPOEIA OF THE PEOPLES REPUBLIC OF CHINA, second part, 2005 edition, appendix XIA The Antibiotics Microorganism Test.
(§6) Medium: Improved Martin Agar Medium, PHARMACOPOEIA OF THE PEOPLES REPUBLIC OF CHINA, second part, 2005 edition, appendix p 84.
Test method: Double-plate counting method; […] bacteria bed 15 ml to replace the double layers, culture temperature: 37° C., time: 24 h; strain concentration: 1% […]

Candida mycoderma = details: for diameter of the bacteria-inhibition zone, Candida mycoderma 0 h / diameter of the bacteria-inhibition zone, Candida mycoderma 6 h / diameter of the bacteria-inhibition zone, Candida mycoderma 24 h / diameter of the bacteria-inhibition zone, Candida mycoderma 48 h: 2.8 μg/ml after conversion; for zone of inhibition at 5.6 µg/mL: 5.6 μg/ml after conversion
Source text: as §1, §2, §3
2.3 Preparation of Candida mycoderrna suspension: the method is as same as preparation of Saccharomyces cerevisiae suspension
as §4, §5, §6
(§7) Test method: Double-plate counting method; […] bacteria bed 15 ml to replace the double layers, culture temperature: 37° C., time: 24 h; strain concentration: 1%
(§8) Medium: Modified Martin Broth Medium

Saccharomyces cerevisiae = details: for diameter of the bacteria-inhibition zone, Saccharomyces cerevisiae 0 h / diameter of the bacteria-inhibition zone, Saccharomyces cerevisiae 6 h / diameter of the bacteria-inhibition zone, Saccharomyces cerevisiae 24 h / diameter of the bacteria-inhibition zone, Saccharomyces cerevisiae 48 h: 2.8 μg/ml after conversion; for zone of inhibition at 5.6 µg/mL: Saccharomyces cerevisiae, 5.6 μg/ml after conversion
Source text: as §1, §2, §3
2.2 Preparation of Saccharomyces cerevisiae suspension: PHARMACOPOEIA OF THE PEOPLES REPUBLIC OF CHINA, second part, 2005 edition, appendix p 80, p 83.
as §4, §5, §6, §7, §8

[1] = 0 h, 2.8 μg/ml after conversion, no serum
[2] = 0 h, 2.8 μg/ml after conversion, serum added (40% defibered sheep serum)
[3] = 6 h, 2.8 μg/ml after conversion, no serum
[4] = 6 h, 2.8 μg/ml after conversion, serum added (40% defibered sheep serum)
[5] = 24 h, 2.8 μg/ml after conversion, no serum
[6] = 48 h, 2.8 μg/ml after conversion, no serum
[7] = 0 h, serum added (40% defibered sheep serum)

Molecule | diameter of the bacteria-inhibition zone, Candida albicans 0 h (Candida albicans; [1]) | diameter of the bacteria-inhibition zone, Candida albicans 0 h (Candida albicans; [2]) | diameter of the bacteria-inhibition zone, Candida albicans 6 h (Candida albicans; [3]) | diameter of the bacteria-inhibition zone, Candida albicans 6 h (Candida albicans; [4]) | diameter of the bacteria-inhibition zone, Candida albicans 24 h (Candida albicans; [5]) | diameter of the bacteria-inhibition zone, Candida albicans 48 h (Candida albicans; [6]) | diameter of the bacteria-inhibition zone, Candida mycoderma 0 h (Candida mycoderma; 0 h, no serum) | diameter of the bacteria-inhibition zone, Candida mycoderma 0 h (Candida mycoderma; [7]) | diameter of the bacteria-inhibition zone, Candida mycoderma 6 h (Candida mycoderma; 6 h, no serum) | diameter of the bacteria-inhibition zone, Candida mycoderma 24 h (Candida mycoderma; 24 h, no serum) | diameter of the bacteria-inhibition zone, Candida mycoderma 48 h (Candida mycoderma; 48 h, no serum) | diameter of the bacteria-inhibition zone, Saccharomyces cerevisiae 0 h (Saccharomyces cerevisiae; 0 h, no serum) | diameter of the bacteria-inhibition zone, Saccharomyces cerevisiae 0 h (Saccharomyces cerevisiae; [7]) | diameter of the bacteria-inhibition zone, Saccharomyces cerevisiae 6 h (Saccharomyces cerevisiae; 6 h, no serum) | diameter of the bacteria-inhibition zone, Saccharomyces cerevisiae 24 h (Saccharomyces cerevisiae; 24 h, no serum) | diameter of the bacteria-inhibition zone, Saccharomyces cerevisiae 48 h (Saccharomyces cerevisiae; 48 h, no serum) | also measured
CC(OC(=O)OC1CCCCC1)OC(=O)C1C(O)CC2(O)CC(O)CC(O)C(O)CCC(O)CC(O)CC(=O)OC(C)C(C)C(O)C(C)C=CC=CC=CC=CC=CC=CC=CC(OC3OC(C)C(O)C(N)C3O)CC1O2 (stereo not shown) [amphotericin B cyclohexyloxycarbonyloxyethyl ester] | + (7-9 mm: +) | + (7-9 mm: +) | + (7-9 mm: +) | ++ (9-12 mm: ++) | + (7-9 mm: +) | + (7-9 mm: +) | ++ (9-12 mm: ++) | ++ (9-12 mm: ++) | ++ (9-12 mm: ++) | ++ (9-12 mm: ++) | ++ (9-12 mm: ++) | ++ (9-12 mm: ++) | ++ (9-12 mm: ++) | ++ (9-12 mm: ++) | ++ (9-12 mm: ++) | ++ (9-12 mm: ++) | –
Cc1oc(=O)oc1COC(=O)C1C(O)CC2(O)CC(O)CC(O)C(O)CCC(O)CC(O)CC(=O)OC(C)C(C)C(O)C(C)C=CC=CC=CC=CC=CC=CC=CC(OC3OC(C)C(O)C(N)C3O)CC1O2 (stereo not shown) [amphotericin B-5-methyl-1,3-dioxol-2-one-4-methyl ester] | ++ (9-12 mm: ++) | ++ (9-12 mm: ++) | ++ (9-12 mm: ++) | – | ++ (9-12 mm: ++) | ++ (9-12 mm: ++) | ++ (9-12 mm: ++) | ++ (9-12 mm: ++) | ++ (9-12 mm: ++) | ++ (9-12 mm: ++) | ++ (9-12 mm: ++) | ++ (9-12 mm: ++) | ++ (9-12 mm: ++) | ++ (9-12 mm: ++) | ++ (9-12 mm: ++) | ++ (9-12 mm: ++) | –
C[C@@H]1C/C=C/C=C/C=C/C=C/[C@H](O[C@@H]2O[C@H](C)[C@@H](O)[C@H](N)[C@@H]2O)C[C@@H]2O[C@](O)(C[C@@H](O)C[C@H]3O[C@@H]3/C=C/C(=O)O1)C[C@H](O)[C@H]2C(=O)O [Natamycin, natamycin, reference compound] | – | – | – | – | – | – | – | – | – | – | – | – | – | – | – | – | diameter of the bacteria-inhibition zone, Candida albicans 0 h (Candida albicans; 0 h, 5.6 μg/ml after conversion, serum added (40% defibered sheep serum)): ++ (9-12 mm: ++); diameter of the bacteria-inhibition zone, Candida albicans 6 h (Candida albicans; 6 h, 5.6 μg/ml after conversion, serum added (40% defibered sheep serum)): ++ (9-12 mm: ++); diameter of the bacteria-inhibition zone, Candida albicans 24 h (Candida albicans; 24 h, 5.6 μg/ml after conversion, serum added (40% defibered sheep serum)): ++ (9-12 mm: ++); diameter of the bacteria-inhibition zone, Candida albicans 48 h (Candida albicans; 48 h, 5.6 μg/ml after conversion, serum added (40% defibered sheep serum)): ++ (9-12 mm: ++); zone of inhibition at 5.6 µg/mL (Candida albicans; 0 h, 5.6 μg/ml after conversion, no serum, read-out: diameter of the bacteria-inhibition zone, Candida albicans 0 h): 9 to 12 mm; zone of inhibition at 5.6 µg/mL (Candida albicans; 6 h, 5.6 μg/ml after conversion, no serum, read-out: diameter of the bacteria-inhibition zone, Candida albicans 6 h): 9 to 12 mm; zone of inhibition at 5.6 µg/mL (Candida albicans; 24 h, 5.6 μg/ml after conversion, no serum, read-out: diameter of the bacteria-inhibition zone, Candida albicans 24 h): 9 to 12 mm; zone of inhibition at 5.6 µg/mL (Candida albicans; 48 h, 5.6 μg/ml after conversion, no serum, read-out: diameter of the bacteria-inhibition zone, Candida albicans 48 h): 9 to 12 mm; zone of inhibition at 5.6 µg/mL (Candida mycoderma; 0 h, no serum, read-out: diameter of the bacteria-inhibition zone, Candida mycoderma 0 h): 12 to 14 mm; zone of inhibition at 5.6 µg/mL (Candida mycoderma; 6 h, no serum, read-out: diameter of the bacteria-inhibition zone, Candida mycoderma 6 h): 12 to 14 mm; zone of inhibition at 5.6 µg/mL (Candida mycoderma; 24 h, no serum, read-out: diameter of the bacteria-inhibition zone, Candida mycoderma 24 h): 12 to 14 mm; zone of inhibition at 5.6 µg/mL (Candida mycoderma; 48 h, no serum, read-out: diameter of the bacteria-inhibition zone, Candida mycoderma 48 h): 12 to 14 mm; zone of inhibition at 5.6 µg/mL (Saccharomyces cerevisiae; 0 h, no serum, read-out: diameter of the bacteria-inhibition zone, Saccharomyces cerevisiae 0 h): 14 to 16 mm; zone of inhibition at 5.6 µg/mL (Saccharomyces cerevisiae; 0 h, serum added (40% defibered sheep serum), read-out: diameter of the bacteria-inhibition zone, Saccharomyces cerevisiae 0 h): 12 to 14 mm; zone of inhibition at 5.6 µg/mL (Saccharomyces cerevisiae; 6 h, no serum, read-out: diameter of the bacteria-inhibition zone, Saccharomyces cerevisiae 6 h): 14 to 16 mm; zone of inhibition at 5.6 µg/mL (Saccharomyces cerevisiae; 6 h, serum added (40% defibered sheep serum), read-out: diameter of the bacteria-inhibition zone, Saccharomyces cerevisiae 6 h): 12 to 14 mm; zone of inhibition at 5.6 µg/mL (Saccharomyces cerevisiae; 24 h, no serum, read-out: diameter of the bacteria-inhibition zone, Saccharomyces cerevisiae 24 h): 14 to 16 mm; zone of inhibition at 5.6 µg/mL (Saccharomyces cerevisiae; 24 h, serum added (40% defibered sheep serum), read-out: diameter of the bacteria-inhibition zone, Saccharomyces cerevisiae 24 h): 12 to 14 mm; zone of inhibition at 5.6 µg/mL (Saccharomyces cerevisiae; 48 h, no serum, read-out: diameter of the bacteria-inhibition zone, Saccharomyces cerevisiae 48 h): 14 to 16 mm; zone of inhibition at 5.6 µg/mL (Saccharomyces cerevisiae; 48 h, serum added (40% defibered sheep serum), read-out: diameter of the bacteria-inhibition zone, Saccharomyces cerevisiae 48 h): 12 to 14 mm
amphotericin B-1, 3-2H-3-oxo-1-isobenzofuran ester | + (7-9 mm: +) | + (7-9 mm: +) | + (7-9 mm: +) | ++ (9-12 mm: ++) | + (7-9 mm: +) | + (7-9 mm: +) | ++ (9-12 mm: ++) | ++ (9-12 mm: ++) | ++ (9-12 mm: ++) | ++ (9-12 mm: ++) | ++ (9-12 mm: ++) | ++ (9-12 mm: ++) | ++ (9-12 mm: ++) | ++ (9-12 mm: ++) | ++ (9-12 mm: ++) | ++ (9-12 mm: ++) | –
amphotericin B ethyl acetate | – | – | – | – | – | – | ++ (9-12 mm: ++) | ++ (9-12 mm: ++) | ++ (9-12 mm: ++) | ++ (9-12 mm: ++) | ++ (9-12 mm: ++) | + (7-9 mm: +) | ++ (9-12 mm: ++) | + (7-9 mm: +) | + (7-9 mm: +) | + (7-9 mm: +) | –
CCOC(=O)OC(C)OC(=O)[C@H]1[C@@H]2C[C@@H](OC3OC(C)C(O)C(N)C3O)/C=C/C=C/C=C/C=C/C=C/C=C/C=C/[C@H](C)[C@@H](O)[C@@H](C)[C@H](C)OC(=O)C[C@H](O)C[C@H](O)CC[C@@H](O)[C@H](O)C[C@H](O)C[C@](O)(C[C@@H]1O)O2 (stereo partly shown) [amphotericin B ethoxycarbonyloxyethyl ester] | – | – | – | – | – | – | + (7-9 mm: +) | + (7-9 mm: +) | + (7-9 mm: +) | + (7-9 mm: +) | + (7-9 mm: +) | ++ (9-12 mm: ++) | ++ (9-12 mm: ++) | ++ (9-12 mm: ++) | ++ (9-12 mm: ++) | ++ (9-12 mm: ++) | diameter of the bacteria-inhibition zone, Candida mycoderma 6 h (Candida mycoderma; 6 h, serum added (40% defibered sheep serum)): ++ (9-12 mm: ++)
